Assay results published in ChEMBL document CHEMBL3046115, “Modification and biological evaluation of novel 4-hydroxy-pyrone derivatives as non-peptidic HIV-1 protease inhibitors” (Med Chem Res, 2011).
Calls of active or inactive are those of the source. The calls are words filed in the database; no cut-off is given here.

Experiments:
[1] = target: Protease (Human immunodeficiency virus 1, UniProt Q9YQ12); experiment: Inhibition of Human immunodeficiency virus 1 protease using Lys-Ala-Arg-Val-Leu-Phe(NO2)-Glu-Ala-Met as substrate
Chain of Protease (Q9YQ12 whole entry): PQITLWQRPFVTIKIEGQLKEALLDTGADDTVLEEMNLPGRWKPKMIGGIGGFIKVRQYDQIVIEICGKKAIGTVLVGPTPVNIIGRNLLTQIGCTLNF

[2] = target: Protease (Human immunodeficiency virus 1) (UniProt Q9YQ12); experiment: Inhibition of Human immunodeficiency virus 1 protease expressed in human 293T cells cotransfected with pGAGPOL and pGAG assessed as Gagp24 protein expression after 48 hr by Western blot analysis; assay type: cell-based
Chain of Protease (Human immunodeficiency virus 1) (Q9YQ12 as listed by the source): as the sequence (Q9YQ12 whole entry) above

[3] = Therapeutic index, ratio of TC50 for human CEM174 cells to EC50 for SIV infected in human CEM174 cells; assay type: cell-based; conditions: CEM174 cells (uninfected for TC50, SIV-infected for EC50), read-out: TI
[4] = tested on: Simian immunodeficiency virus; experiment: Antiviral activity against Simian immunodeficiency virus infected CEM174 cells assessed as inhibition of viral-induced syncytium formation after 5 days by microscopic analysis; assay type: functional, organism-based; conditions: CEM174, 120 h
[5] = Cytotoxicity against Homo sapiens (human) CEM174 cells; assay type: cell-based; conditions: read-out: TC50 (the source's name)

Row | SMILES | IC50 [1] [nM] | other results
1 | O=C(O)CCCCC1(CCc2ccccc2)CC(O)=C(SCCc2ccccc2)C(=O)O1 (centres undefined) | 5 | 
2 | CCOc1ccc(OCC)c(SC2=C(O)CC(COc3ccc4ccccc4c3)(c3ccccc3)OC2=O)c1 (racemic) | 9.2 | inhibition [2]: Active
3 | Cc1ccccc1SC1=C(O)CC(COc2ccc3ccccc3c2)(c2ccccc2)OC1=O (racemic) | 61 | 
4 | CCc1ccccc1SC1=C(O)CC(COc2ccc3ccccc3c2)(c2ccccc2)OC1=O (racemic) | 22 | 
5 | O=C1OC(COc2ccc3ccccc3c2)(c2ccccc2)CC(O)=C1Sc1ccccc1Cl (racemic) | 89 | 
6 | Cc1ccc(C)c(SC2=C(O)CC(CSc3ccccc3)(c3ccccc3)OC2=O)c1 (racemic) | 196 | 
7 | CC(C)(C)NC(=O)[C@@H]1CN(Cc2cccnc2)CCN1C[C@@H](O)C[C@@H](Cc1ccccc1)C(=O)N[C@H]1c2ccccc2C[C@H]1O |  | selectivity ratio [3]: > 1000; EC50 [4]: < 0.1 µM; CC50 [5]: > 100 µM
8 | O=C1OC(COc2cccc3ccccc23)(c2ccccc2)CC(O)=C1Sc1ccccc1 (racemic) | 159 | 
9 | O=C1OC(CSc2ccccc2)(c2ccccc2)CC(O)=C1SCc1ccccc1 (racemic) | 32 | 
10 | CCc1ccccc1SC1=C(O)CC(COc2cccc3ccccc23)(c2ccccc2)OC1=O (racemic) | 100 | 
11 | O=C1OC(COc2ccc3ccccc3c2)(c2ccccc2)CC(O)=C1Sc1ccccc1 (racemic) | 126 | 
12 | O=C1OC(COc2cccc3ccccc23)(c2ccccc2)CC(O)=C1SCc1ccccc1 (racemic) | 128 | 
13 | O=C1OC(COc2ccc3ccccc3c2)(c2ccccc2)CC(O)=C1SCc1ccccc1 (racemic) | 73 | 
14 | Cc1ccccc1SC1=C(O)CC(COc2cccc3ccccc23)(c2ccccc2)OC1=O (racemic) | 64 | 
15 | CCc1ccccc1SC1=C(O)CC(CSc2ccccc2)(c2ccccc2)OC1=O (racemic) | 238 | 
16 | Cc1ccc(C)c(SC2=C(O)CC(COc3ccc4ccccc4c3)(c3ccccc3)OC2=O)c1 (racemic) | 65 | 
17 | O=C1OC(COc2cccc3ccccc23)(c2ccccc2)CC(O)=C1Sc1ccccc1Cl (racemic) | 59 | 
18 | Cc1ccccc1SC1=C(O)CC(CSc2ccccc2)(c2ccccc2)OC1=O (racemic) | 240 | 
19 | Cc1ccc(C)c(SC2=C(O)CC(COc3cccc4ccccc34)(c3ccccc3)OC2=O)c1 (racemic) | 126 | 
20 | O=C1OC(CSc2ccccc2)(c2ccccc2)CC(O)=C1Sc1ccccc1 (racemic) | 258 | 
21 | CCOc1ccc(OCC)c(SC2=C(O)CC(CSc3ccccc3)(c3ccccc3)OC2=O)c1 (racemic) | 24 | 
22 | CCOc1ccc(OCC)c(SC2=C(O)CC(COc3cccc4ccccc34)(c3ccccc3)OC2=O)c1 (racemic) | 3.5 | inhibition [2]: Active
23 | Cc1ccc(C(C)C)c(SC2=C(O)CC(CCc3ccccc3)(C(C)C)OC2=O)c1 (centres undefined) | 1.1 | EC50 [4]: 15 µM
24 | O=C1OC(CSc2ccccc2)(c2ccccc2)CC(O)=C1Sc1ccccc1Cl (racemic) | 70 | 
